± gives the standard deviation of the averaged measurements.
Columns and labels:
[1] = compound: T1, CN(C)C/C=C/C(=O)Nc1cc2c(Nc3ccc(F)c(Cl)c3)ncnc2cc1O[C@H]1CCOC1 [AFATINIB]; experiment: surviving fraction relative to DMSO-only wells; higher = less growth inhibition; conditions: exposure time: 5 days
Outline: (§1)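 Surviving fraction was calculated by normalising CellTiter-Glo luminescence to the median of DMSO-only wells. Tumour cell lines in log phase were seeded in 384-well plates at 250–500 cells per well, and 24 hours later were exposed continuously for five days to inhibitors at 0.5, 1, 5, 10, 50, 100, 500 and 1000 nM.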

[2] = compound: Cn1cc(C2=Nc3cc(NC(=O)C(N)C4CCCCC4)cc4c3C2=CNNC4=O)cn1; experiment: as above; conditions: exposure time: 5 days
Outline: as §1

[3] = compound: T2, CC[C@@H]1C(=O)N(C)c2cnc(Nc3ccc(C(=O)NC4CCN(C)CC4)cc3OC)nc2N1C1CCCC1 [BI-2536]; experiment: as above; conditions: exposure time: 5 days
Outline: as §1

[4] = compound: T3, C=CC(=O)Nc1cc2c(Nc3ccc(F)c(Cl)c3)ncnc2cc1OCCCN1CCOCC1 [CANERTINIB]; experiment: as above; conditions: exposure time: 5 days
Outline: as §1

[5] = compound: T4, CCCCCCCCCCCCCCCC(=O)Nc1ccn([C@@H]2O[C@H](CO)[C@@H](O)[C@@H]2C#N)c(=O)n1 [SAPACITABINE]; experiment: as above; conditions: exposure time: 5 days
Outline: as §1

[6] = compound: T5, Nc1nc2[nH]cnc2c(=S)[nH]1 [TIOGUANINE]; experiment: as above; conditions: exposure time: 5 days
Outline: as §1

[7] = compound: T6, CC1(C)CC(=O)c2c(C(F)(F)F)nn(-c3ccc(C(N)=O)c(N[C@H]4CC[C@H](OC(=O)CN)CC4)c3)c2C1 [SNX-5422]; experiment: as above; conditions: exposure time: 5 days
Outline: as §1

[8] = compound: T7, CNC(=O)c1ccc(N2C(=S)N(c3ccc(C#N)c(C(F)(F)F)c3)C(=O)C2(C)C)cc1F [MDV3100]; experiment: as above; conditions: exposure time: 5 days
Outline: as §1

[9] = compound: T1, AFATINIB; experiment: area under dose-response curve of surviving fraction (unscaled, Aref=0) (surviving fraction x log10(nM)); higher = more resistant; conditions: exposure time: 5 days; dose range 0.5-1000 nM
Outline: (§2)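 Inhibitor was applied to tumour cell lines at eight concentrations (0.5 to 1000 nM) for five days in 384-well plates. Luminescence from CellTiter-Glo, scaled to DMSO-only wells, gave surviving fractions in three screens per line, and these were fitted by 3-parameter logistic regression with the drc R package. The area under the curve is an unscaled activity area. Aref was 0, and dose was on a log10 scale.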

[10] = compound: Cn1cc(C2=Nc3cc(NC(=O)C(N)C4CCCCC4)cc4c3C2=CNNC4=O)cn1; experiment: as above; conditions: exposure time: 5 days; dose range 0.5-1000 nM
Outline: as §2

[11] = compound: T2, BI-2536; experiment: as above; conditions: exposure time: 5 days; dose range 0.5-1000 nM
Outline: as §2

[12] = compound: T3, CANERTINIB; experiment: as above; conditions: exposure time: 5 days; dose range 0.5-1000 nM
Outline: as §2

[13] = compound: T4, SAPACITABINE; experiment: as above; conditions: exposure time: 5 days; dose range 0.5-1000 nM
Outline: as §2

[14] = compound: T5, TIOGUANINE; experiment: as above; conditions: exposure time: 5 days; dose range 0.5-1000 nM
Outline: as §2

[15] = compound: T6, SNX-5422; experiment: as above; conditions: exposure time: 5 days; dose range 0.5-1000 nM
Outline: as §2

[16] = compound: T7, MDV3100; experiment: as above; conditions: exposure time: 5 days; dose range 0.5-1000 nM
Outline: as §2

Q: SG32 HEADNECK was tested. Which surviving fraction ([1]; 0.5 nM) did it give?
A: 1.13 ± 0.14

Q: What about the surviving fraction ([1]; 1 nM) of the same test system?
A: 1.09 ± 0.082

Q: And the surviving fraction ([1]; 5 nM)?
A: 1.13 ± 0.2

Q: What about the surviving fraction ([1]; 10 nM) of the same test system?
A: 1.01 ± 0.078

Q: What about the surviving fraction ([1]; 50 nM) of the same test system?
A: 0.895 ± 0.11

Q: What about the surviving fraction ([1]; 100 nM) of the same test system?
A: 0.864 ± 0.07

Q: And the surviving fraction ([1]; 500 nM)?
A: 0.637 ± 0.081

Q: And the surviving fraction ([1]; 1000 nM)?
A: 0.348 ± 0.09

Q: What about the surviving fraction ([2]; 0.5 nM) of the same test system?
A: 1.12 ± 0.29

Q: What about the surviving fraction ([2]; 1 nM) of the same test system?
A: 1.13 ± 0.1

Q: What about the surviving fraction ([2]; 5 nM) of the same test system?
A: 1.14 ± 0.091

Q: And the surviving fraction ([2]; 10 nM)?
A: 1.12 ± 0.14

Q: And the surviving fraction ([2]; 50 nM)?
A: 0.881 ± 0.065

Q: And the surviving fraction ([2]; 100 nM)?
A: 0.774 ± 0.19

Q: And the surviving fraction ([2]; 500 nM)?
A: 0.273 ± 0.099

Q: What about the surviving fraction ([2]; 1000 nM) of the same test system?
A: 0.222 ± 0.087

Q: And the surviving fraction ([3]; 0.5 nM)?
A: 1.22 ± 0.12

Q: And the surviving fraction ([3]; 1 nM)?
A: 1.07 ± 0.18

Q: What about the surviving fraction ([3]; 5 nM) of the same test system?
A: 0.32 ± 0.017

Q: And the surviving fraction ([3]; 10 nM)?
A: 0.296 ± 0.022

Q: What about the surviving fraction ([3]; 50 nM) of the same test system?
A: 0.292 ± 0.0097

Q: And the surviving fraction ([3]; 100 nM)?
A: 0.294 ± 0.043

Q: What about the surviving fraction ([3]; 500 nM) of the same test system?
A: 0.204 ± 0.014

Q: What about the surviving fraction ([3]; 1000 nM) of the same test system?
A: 0.16 ± 0.02

Q: And the surviving fraction ([4]; 0.5 nM)?
A: 0.647 ± 0.084

Q: What about the surviving fraction ([4]; 1 nM) of the same test system?
A: 0.826 ± 0.11

Q: What about the surviving fraction ([4]; 5 nM) of the same test system?
A: 0.778 ± 0.12

Q: And the surviving fraction ([4]; 10 nM)?
A: 0.839 ± 0.094

Q: And the surviving fraction ([4]; 50 nM)?
A: 0.786 ± 0.15

Q: And the surviving fraction ([4]; 100 nM)?
A: 0.703 ± 0.14

Q: What about the surviving fraction ([4]; 500 nM) of the same test system?
A: 0.577 ± 0.09

Q: And the surviving fraction ([4]; 1000 nM)?
A: 0.501 ± 0.031

Q: What about the surviving fraction ([5]; 0.5 nM) of the same test system?
A: 0.715 ± 0.068

Q: And the surviving fraction ([5]; 1 nM)?
A: 0.614 ± 0.17

Q: What about the surviving fraction ([5]; 5 nM) of the same test system?
A: 0.907 ± 0.12

Q: And the surviving fraction ([5]; 10 nM)?
A: 0.429 ± 0.12

Q: And the surviving fraction ([5]; 50 nM)?
A: 0.707 ± 0.11

Q: What about the surviving fraction ([5]; 100 nM) of the same test system?
A: 0.487 ± 0.065

Q: And the surviving fraction ([5]; 500 nM)?
A: 0.447 ± 0.082

Q: What about the surviving fraction ([5]; 1000 nM) of the same test system?
A: 0.289 ± 0.078

Q: And the surviving fraction ([6]; 0.5 nM)?
A: 0.916 ± 0.077

Q: What about the surviving fraction ([6]; 1 nM) of the same test system?
A: 1.04 ± 0.044

Q: What about the surviving fraction ([6]; 5 nM) of the same test system?
A: 1.18 ± 0.22

Q: What about the surviving fraction ([6]; 10 nM) of the same test system?
A: 1.2 ± 0.074

Q: What about the surviving fraction ([6]; 50 nM) of the same test system?
A: 1.2 ± 0.15

Q: What about the surviving fraction ([6]; 100 nM) of the same test system?
A: 0.881 ± 0.05

Q: And the surviving fraction ([6]; 500 nM)?
A: 0.962 ± 0.22

Q: And the surviving fraction ([6]; 1000 nM)?
A: 1.17 ± 0.057

Q: And the surviving fraction ([7]; 0.5 nM)?
A: 1.35 ± 0.39

Q: And the surviving fraction ([7]; 1 nM)?
A: 1.17 ± 0.21

Q: And the surviving fraction ([7]; 5 nM)?
A: 1.08 ± 0.18

Q: And the surviving fraction ([7]; 10 nM)?
A: 1.29 ± 0.14

Q: And the surviving fraction ([7]; 50 nM)?
A: 0.257 ± 0.035

Q: What about the surviving fraction ([7]; 100 nM) of the same test system?
A: 0.14 ± 0.011

Q: And the surviving fraction ([7]; 500 nM)?
A: 0.0353 ± 0.0084

Q: What about the surviving fraction ([7]; 1000 nM) of the same test system?
A: 0.0353 ± 0.004

Q: And the surviving fraction ([8]; 0.5 nM)?
A: 1.21 ± 0.56

Q: What about the surviving fraction ([8]; 1 nM) of the same test system?
A: 0.976 ± 0.13

Q: What about the surviving fraction ([8]; 5 nM) of the same test system?
A: 0.988 ± 0.033

Q: And the surviving fraction ([8]; 10 nM)?
A: 0.794 ± 0.073

Q: What about the surviving fraction ([8]; 50 nM) of the same test system?
A: 1.16 ± 0.17

Q: What about the surviving fraction ([8]; 100 nM) of the same test system?
A: 1 ± 0.3

Q: What about the surviving fraction ([8]; 500 nM) of the same test system?
A: 1.01 ± 0.044

Q: What about the surviving fraction ([8]; 1000 nM) of the same test system?
A: 1.09 ± 0.26

Q: What about the “area under dose-response curve” value [9] of the same test system?
A: 2.94

Q: And the “area under dose-response curve” value [10]?
A: 2.65

Q: And the “area under dose-response curve” value [11]?
A: 1.44

Q: What about the “area under dose-response curve” value [12] of the same test system?
A: 2.35

Q: What about the “area under dose-response curve” value [13] of the same test system?
A: 1.91

Q: What about the “area under dose-response curve” value [14] of the same test system?
A: 3.59

Q: What about the “area under dose-response curve” value [15] of the same test system?
A: 1.98

Q: And the “area under dose-response curve” value [16]?
A: 3.4

Source: the supplement of paper PMC6045584
